Assay results from patent US12448425B2, “Therapeutic peptides” (Board of Regents, The University of Texas System, priority 2019, dated 2025).
Square brackets hold non-standard residues; d marks the D form. Ends that are not written are not given here. Peptide text beside a SMILES is read from it.

Columns and labels:
EphB4 = biological target: T1, EphB4 (Homo sapiens, UniProt P54760); test: SPR binding of peptides to immobilized EphB4; settings: EphB4-coated sensor chips, 25° C.
T1 construct: purchased R&D Systems
T1 sequence (P54760 16-987): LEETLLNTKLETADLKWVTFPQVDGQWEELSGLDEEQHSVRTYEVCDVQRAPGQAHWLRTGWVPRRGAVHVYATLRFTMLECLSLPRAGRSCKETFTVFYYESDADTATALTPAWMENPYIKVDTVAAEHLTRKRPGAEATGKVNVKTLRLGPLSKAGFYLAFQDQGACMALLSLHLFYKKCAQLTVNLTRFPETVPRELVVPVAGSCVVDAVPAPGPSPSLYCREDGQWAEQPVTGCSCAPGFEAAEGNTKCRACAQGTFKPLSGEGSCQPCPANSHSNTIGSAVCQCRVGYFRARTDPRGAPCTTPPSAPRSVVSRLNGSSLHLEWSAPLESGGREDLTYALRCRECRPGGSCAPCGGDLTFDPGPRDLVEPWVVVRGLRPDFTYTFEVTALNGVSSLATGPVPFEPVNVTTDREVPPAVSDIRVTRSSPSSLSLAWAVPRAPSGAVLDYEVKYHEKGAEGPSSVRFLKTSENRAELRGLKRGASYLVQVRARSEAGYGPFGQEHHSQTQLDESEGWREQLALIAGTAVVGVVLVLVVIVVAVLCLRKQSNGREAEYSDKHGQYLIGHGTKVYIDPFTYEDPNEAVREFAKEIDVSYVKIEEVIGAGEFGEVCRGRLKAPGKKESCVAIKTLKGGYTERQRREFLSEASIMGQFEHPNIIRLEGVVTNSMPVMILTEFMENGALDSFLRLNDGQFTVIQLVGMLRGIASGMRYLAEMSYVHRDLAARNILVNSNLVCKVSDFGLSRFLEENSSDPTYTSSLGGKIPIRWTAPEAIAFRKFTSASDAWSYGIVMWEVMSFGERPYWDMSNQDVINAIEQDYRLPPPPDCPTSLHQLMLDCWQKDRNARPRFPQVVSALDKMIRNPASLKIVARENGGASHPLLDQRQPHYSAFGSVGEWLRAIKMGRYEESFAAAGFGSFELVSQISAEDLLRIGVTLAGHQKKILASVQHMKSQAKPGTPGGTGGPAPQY
Procedure: Surface plasmon resonance (SPR) binding and competition assays. A stock solution of EphB4 in PBS (100 μg/mL) was diluted to 25 μg/mL with 10 mM sodium acetate buffer (pH 4.5) and immobilized to CM5 sensor chips using the amine coupling reaction according to manufacturer-provided procedures (BIACore). Briefly, the surfaces of the chips in flow cells (FC)-1 and FC-2 were activated by exposing chips to a mixture of 200 mM N-ethyl-N′-dimethylaminopropyl carbodiimide and 50 mM N-hydroxysuccinimide for 7 min. FC-1 was used as a reference surface and was directly deactivated by injecting 1 M ethanolamine at pH 8.5 for 7 min. FC-2 was injected with 25 μg/mL human or murine EphB4 followed by injection of 1 M ethanolamine to block the remaining activated ester groups on the surface. The chips were allowed to stabilize for at least 2 h in HBSEP running buffer before injection of test analytes.

MDA-HGSC-1 PDX tumor = settings: mouse, in vivo
From the text: PDX model of high grade serous ovarian carcinoma (HGSC). Under Institutional Review Board (IRB protocol PA15-0441) and IACUC approval at University of Texas, MD Anderson Cancer Center, patients with high-serous ovarian carcinoma that were being treated by at the MD Anderson Cancer Center were consented for this study. Subcutaneous HGSC-PDX model was established in 4-6 week old female Balb C athymic nude mice (Harlan Laboratories, Indianapolis, Ind.) by implanting one PDX 3×3×3 mm tumor cube (MDA-HGSOC-1 high-grade serous ovarian cancer; generation 9) at the dorsal portion of each mouse. Tumor size was monitored by caliber, and tumor volume was calculated using the formula V(cm^3)=(length×width^2)/2. Mice were randomly assigned to the PBS vehicle control or BIDEN-AP treatment group, 6 mice per group, once tumor size reached ˜100 mm^3 (21 days after implantation). PBS or BIDEN-AP was injected intraperitoneally at […] ([…]), once every other day for a total of 14 doses. At the end of the study (day 49), all mice were euthanized, and tumors were collected, weighted, and snap-frozen in optimal cutting temperature compound with liquid nitrogen, and cryosectioned into 5-μm sections for IHC staining of CD31 and Ki67 markers. […] Cell nuclei were counterstained with DAPI.

[1] = tested on: EphB4 on the surface of A2780cp20 cells; assay type: cell-based, human; settings: 1 h
Procedure: Cell-based binding assay. A2780cp20 ovarian cancer cells (1×10^6 cells/mL) were incubated with EFNB2-Fc (20 nM) and BIDEN-AP at concentrations ranging from 0 to 100 μM at 25° C. for 1 h. After washings, EFNB2-Fc bound to the cells were probed with PE-labeled anti-Fc antibody and analyzed by flow cytometry. Binding of BIDEN-AP to A2780cp20 cells was determined by its ability to displace EFNB2-Fc's binding to the tumor cells, measured by decreased PE fluorescence signal. Cells were analyzed in a Cellquest fluorocytometer (BD Bioscience, San Jose, CA). The experiments were run in duplicate.

4T1 cells = test: 4T1 i.v. lung metastasis model; parameters: species or system mouse; settings: throughout these in vivo studies
From the text: FIGS. 25A-B: Anti-metastatic activity of BIDEN-AP. (FIG. 25A) Representative photographs of lungs from different treatment groups. The normal lung tissue was stained by blue ink. (FIG. 25B) Counts of surface metastatic nodules in the lung by visual inspection. Data are expressed as mean±SD. **p<0.01 (n=10).
BIDEN-AP was given at the same dose and the same schedule as in FIG. 24A. […] Thus, BIDEN-AP is highly anti-metastatic.

A2780cp20 cells = test: Internalization of Alexa647-labeled peptides (confocal microscopy); assay type: cell-based, human
Procedure: FIGS. 2A-C: BIDEN-AP acts as an EphB4 agonist. (FIG. 2A) BIDEN-AP induced phosphorylation of EphB4 and the associated […] (Crk1). After 16 h serum starvation, A2780cp20 cells were incubated with EFNB2-Fc (20 nM), TNYL-RAW (SEQ ID NO: 12) (50 μM), or BIDEN-AP (50 μM) for 30 min or 2 h. The uncropped blots were available at Supplemental FIG. 11. (FIG. 2B) BIDEN-AP inhibited A2780cp20 cell invasion compared to untreated control (CTL). A modified Boyden transwell chamber coated with human defined matrigel was used. Experiments were performed in triplicate. Data are presented as mean±SD. ***p<0.001. (FIG. 2C) Alexa647-BIDEN-AP was internalized via receptor-mediated endocytosis. A2780cp20 cells were incubated at 37° C. with Alexa647-BIDEN-AP (0.05 μM), Alexa647-TNYL-RAW (SEQ ID NO: 12) (0.05 μM), or Alexa647-BIDEN-AP (0.05 μM) plus unlabeled TNYL-RAW (SEQ ID NO: 12) (5 μM, blocking). Alexa647-BIDEN-AP but not Alexa647-TNYL-RAW (SEQ ID NO: 12) was internalized into the A2780cp20 cells.
A2780cp20 cells were incubated at 4° C. with Alexa647-BIDEN-AP (0.05 μM).
Immunofluorescence imaging. A2780cp20 ovarian cancer cells (5×10^5 cells/well) were plated in 4-well chamber slides and treated with Alexa647-labeled BIDEN-AP (50 μM) for 1 h or 2 h. Cells were washed three times with 1×PBS and fixed in freshly prepared fixative containing 3.7% formaldehyde, 0.05% glutaraldehyde, and 0.4% Triton-X-100 in PHEMO buffer (0.068 M PIPES, 0.025 M HEPES, 0.015 M EGTA, 0.003 M MgCl2, and 10% ov/v dimethylsufoxide [DMSO]) for 10 min at room temperature. LysoTracker Green (Cat. L7526; Invitrogen, Carlsbad, CA) was used as a marker of lysosome. The nucleus was stained with Hoechst 33342 (300 nM) at room temperature for 10 min before mounting in Gel Mount mounting medium (Vector Laboratories, Burlingame, CA). Fixed and immunofluorescence-stained cells were imaged using a Zeiss LSM510 Meta laser scanning confocal system (Zeiss, Dublin, CA) configured to a Zeiss Axioplan 2 upright microscope with a CFI Plan Apo Lambda 20× objective lens. Images were obtained from three independent biological replicates.

[2] = Zhang et al., 2011b; cited from earlier work

Q: For CC[C@H](C)[C@H](NC(=O)[C@@H]1CCCN1C(=O)CNC(=O)[C@H](CC(N)=O)NC(=O)[C@@H]1CCCN1C(=O)[C@@H](CO)NC(=O)[C@H](Cc1ccccc1)NC(=O)[C@H](CC(C)C)NC(=O)[C@H](Cc1ccc(O)cc1)NC(=O)[C@H](CC(N)=O)NC(=O)[C@@H](N)[C@@H](C)O)C(=O)N[C@@H](C)C(=O)N[C@@H](CCCNC(=N)N)C(=O)N[C@@H](C)C(=O)N[C@@H](Cc1c[nH]c2ccccc12)C(N)=O [B4-006] (H-TNYLF[dS]PNGPIARAW-NH2), which Kd (EphB4) is on record?
A: > 1000 nM

Q: Which “body weight change vs control group” value (MDA-HGSC-1 PDX tumor) does the source give for CC[C@H](C)[C@H](NC(=O)[C@@H]1CCCN1C(=O)CNC(=O)[C@H](CC(N)=O)NC(=O)[C@@H]1CCCN1C(=O)[C@H](CO)NC(=O)[C@H](Cc1ccccc1)NC(=O)[C@H](CC(C)C)NC(=O)[C@@H](Cc1ccc(O)cc1)NC(=O)[C@H](CC(N)=O)NC(=O)[C@@H](N)[C@@H](C)O)C(=O)N[C@@H](C)C(=O)N[C@@H](CCCNC(=N)N)C(=O)N[C@@H](C)C(=O)N[C@@H](Cc1c[nH]c2ccccc12)C(N)=O [BIDEN-AP] (H-TN[dY]LFSPNGPIARAW-NH2; C-terminus assumed) here?
A: did not result in body weight change

Q: What about the IC50 [1] of the same molecule?
A: ~1000 nM

Q: And the “tolerability (treatment-related death, body weight)” value (4T1 cells)?
A: no cases of treatment-related death or change in body weight

Q: With “Alexa647-BIDEN-AP: BIDEN-AP coupled with Alexa647-NHS (TN[dY]LFSPNGPIARAW; also: Alexa647 label, site not given here)” as the molecule, how does the “cellular internalization at 37° C.” value (A2780cp20 cells) read?
A: readily internalized

Q: What about the “internalization in presence of excess unlabeled TNYL-RAW” value (A2780cp20 cells; 37° C., blocking) of the same molecule?
A: blocked

Q: With “Alexa647-TNYL-RAW: TNYL-RAW coupled with Alexa647-NHS (TNYLRAW; also: Alexa647 label, site not given here) [reference compound]” as the molecule, how does the “cellular internalization at 37° C.” value (A2780cp20 cells) read?
A: excluded

Q: For “TNYLFSPNGPIARAW-NH2 (C-terminus assumed) [TNYL-RAW]”, which “area-under-the time curve [AUC]” value [2] is on record?
A: 29.1 % ID h/mL

Q: With YSA-TNYL-RAW-dimer [B4-003] as the molecule, how does the Kd (EphB4) read?
A: 21 nM
